Measured values taken from patent publication US20190298740A1, “METHODS AND COMPOSITIONS FOR TREATING HALLUCINATIONS AND CONDITIONS RELATED TO THE SAME” (Enterin, Inc., priority 2018, published 2019).
“Also recorded” adds a separate entry of the source.

Assays:
[1] = Aminosterol-induced response after a single oral dose; type: in vivo; conditions: single 200 mg oral dose
[2] = cited from earlier work
[3] = system: PD related hallucinations; conditions: cited from earlier work
[4] = cited from earlier work; remark: listed apart in the source
[5] = cited from earlier work; remark: listed apart in the source
[6] = system: Parkinson's disease patient with hallucinations; test: Case reports: oral squalamine in PD patients with hallucinations (Examples 1-3); type: in vivo, human
Text: MV1, a person with a 13-year history of PD had been suffering from daily visual hallucinations for 5 years. MV1 reported that the hallucinations occurred at night. MV1 was aware that the apparitions were unreal, and they were fully awake when they occurred. The hallucinations consisted mostly of faceless dead relatives who came into their bedroom, sat on their bed, or in a chair, or walked around. […] Sometimes MV1 would shout at the hallucinations to go away and the hallucinations would disappear. MV1 also had tactile hallucinations, causing MV1 to feel that insects such as cockroaches were climbing up their legs. They would bend down and attempt to brush them off their feet and legs. MV1 also had tactile hallucinations of the hands “as if someone was picking at them”. They were not treated with any antipsychotic medication and they didn't take any sleeping pills or sedatives. They also suffered from REM-behavior disorder (RBD), and had thrashing of arms and legs during their sleep. Their spouse had moved out of the bed several years prior because of the thrashing, screaming and hallucinations.
The patient was started on 75 mg squalamine daily. […] They were also sleeping better. […] Subsequently, the dose was increased to 175 mg, and maintained at 175 mg per day for another week or two, before discontinued. […]
NY1, a person with a 5-year history of PD suffered from daily hallucinations. The hallucinations had been occurring for a number of years. The hallucinations occurred any time of day or night.
NY1 was started on squalamine 75 mg daily and then escalated to 100 mg daily. […] They were maintained at 125 mg per day for about a week, after which medication was discontinued. NY1 remained hallucination-free for 9 days following discontinuation.
The patient, a person with a 10-year history of Parkinson's Disease suffered from frequent hallucinations. The hallucinations would occur at night and consist of people roaming around in their bedroom, such as a young person sitting on their bed, or a priest standing by the bed. They were fully awake and aware that the visions were unreal. They also suffered from fragmented sleep and REM-behavior disorder (RBD).
BC was started on a squalamine dose of 75 mg daily, which was increased to a daily dose of 175 mg that was maintained for a 3-month period. […] They described the hallucinations as cooks with white top hats and cleaners in blue uniforms. […] Upon discontinuing the medication, the hallucinations returned. This cycle of stopping and resuming squalamine treatment was repeated three times, and the hallucinations abated every time the squalamine treatment was resumed and hallucinations came back every time squalamine treatment was stopped. A portion of their sleep diary is shown below in Table 2.

## CC(C)[C@@H](CC[C@@H](C)[C@H]1CC[C@H]2[C@@H]3[C@H](O)C[C@H]4C[C@@H](NCCCNCCCCNCCCN)CC[C@]4(C)[C@H]3CC[C@]12C)OS(=O)(=O)O [Aminosterol 1436]
[1]
  Duration of the aminosterol-induced response: about 4 days
[2]; administered parenterally to dogs and rodents
  Weight loss: capable of inducing weight loss
[2]; delivered orally
  Anorectic activity: no anorectic activity

## CC(C)COc1ccc(CNC(=O)N(Cc2ccc(F)cc2)C2CCN(C)CC2)cc1 [Pimavanserin]
[3]; PD related hallucinations
  Improvement over placebo on the SCAD-PD questionnaire: 3 point
[3]; label
  Increased mortality (black box warning): 11%

## CC(C)[C@@H](CC[C@@H](C)[C@H]1CC[C@H]2[C@@H]3[C@H](O)C[C@H]4C[C@@H](NCCCNCCCCN)CC[C@]4(C)[C@H]3CC[C@]12C)OS(=O)(=O)O.C[C@H](O)C(=O)O.C[C@H](O)C(=O)O [squalamine dilactate salt]
[4]; preliminary studies
  Oral bioavailability: poorly bioavailable orally
[4]; rodents, subcutaneous and intraperitoneal routes
  Absorption: well absorbed
[5]
  Solubility in water: highly water soluble

## CC(C)[C@@H](CC[C@@H](C)[C@H]1CC[C@H]2[C@@H]3[C@H](O)C[C@H]4C[C@@H](NCCCNCCCCN)CC[C@]4(C)[C@H]3CC[C@]12C)OS(=O)(=O)O [squalamine]
[1]
  Duration of the aminosterol-induced response: about 4 days
[6]; after 125 mg per day for about a week
  Time hallucination-free following discontinuation, patient NY1: 9 days
[6]; after 175 mg per day
  Time hallucination-free after discontinuation, patient MV1: 30 days
[6]; after stopping squalamine administration
  Hallucinations, patient: vivid hallucinations returned; also recorded: Apparitions back with a vengeance; also recorded: Apparitions, cooks in tall hats; also recorded: Apparitions, cleaning crew in blue uniforms; also recorded: Apparitions, severely disturbed sleep
[6]; oral, 100 mg daily, daily hallucinations before
  Hallucination frequency, patient NY1: no more than once or twice a week
[6]; oral, 125 mg daily
  Sleep and RBD, patient MV1: continued to improve
[6]; oral, 125 mg per day
  Hallucinations, patient NY1: disappeared altogether
[6]; oral, 175 mg daily for 3 months
  Hallucinations, patient: no hallucinations
[6]; oral, daily dose increased to 125 mg
  Hallucinations, patient MV1: disappeared completely
[6]; oral, dose increased from 75 mg daily
  Hallucinations, patient MV1: hallucinating less frequently
[6]; squalamine restarted at 125 mg daily
  Hallucinations, patient: hallucinations vanished; also recorded: No hallucinations since last entry; also recorded: No hallucinations since restarting
